Data published in publication PMC11707430, “Novel antibiotics against Staphylococcus aureus without detectable resistance by targeting proton motive force and FtsH” (MedComm, 2025).
Where two headings read alike, the source gives them in different places.

Key:
[1] = system: HSF; assay: Cytotoxicity by CCK-8; type: cell-based, human
Procedure: Cytotoxicity assessment by Cell Counting Kit-8 (CCK-8). The CCK-8 (DojinDo, Japan) was used to detect the cytotoxicity of compounds on human cell lines (LO2, HepG2, and HSF). Briefly, log phased cells were diluted with its optimal medium to ~4000 cells/well in a 96-well plate. After incubation at 37 ℃ with 5% CO2 for 24h, the unadhered cells were removed by PBS washing, and serially diluted compounds were added to each well for 24h incubation at 37 ℃ with 5% CO2. Then, 10 µL of CCK-8 was added to each well and the absorbance at 450 nm (A450nm) was recorded after 3 h of incubation^17.

[2] = system: S. aureus biofilm; assay: Biofilm determination by crystal violet staining; type: cell-based
Procedure: Biofilm determination by crystal violet staining. The biofilm was formed as described above. The planktonic (non-adherent) bacteria were removed by washing the wells with PBS. Added a solution of 0.15% (wt/vol) crystal violet to each well and incubated for 15 min at room temperature. Then, the plates were gently wash with PBS to remove excess crystal violet. One hundred microliters of ethanol were added to each well to solubilize the crystal violet that has bound to the biofilm. The absorbance at 570nm (A570nm) of the solubilized crystal violet was measured with a microplate reader^6.
Biofilm determination by XTT assay. To determine the biofilm inhibition, overnight cultures of S. aureus were diluted with TSB containing 2-fold diluted antimicrobials at the ratio of 1: 100 and added to a 96-well plate. After incubation statically at 37 ℃ for 24h, the supernatant was carefully removed and washed with PBS. (2,3-Bis-(2-methoxy-4-nitro-5-sulfophenyl)-2H-tetrazolium-5-carboxanilide) (XTT, 0.2 mg/ml) and Phenazin (methylsufate) (PMS, 0.02 mg/ml) were mixed with 1× PBS and added to each well of the 96-well plate (100 μL/well). The plate was then incubated for 3h in the dark, and the absorbance was measured at 490 nm (A490nm). For biofilm eradication, overnight cultures of S. aureus were diluted with fresh TSB at 1:100 and incubated for 24h to pre-form biofilms. […]

[3] = target: FtsH (Staphylococcus aureus, UniProt Q2G0R0); assay: Surface plasmon resonance (SPR); type: binding, S. aureus ATCC 43300; conditions: 25 °C
FtsH, sequence (Q2G0R0 entry or part of it): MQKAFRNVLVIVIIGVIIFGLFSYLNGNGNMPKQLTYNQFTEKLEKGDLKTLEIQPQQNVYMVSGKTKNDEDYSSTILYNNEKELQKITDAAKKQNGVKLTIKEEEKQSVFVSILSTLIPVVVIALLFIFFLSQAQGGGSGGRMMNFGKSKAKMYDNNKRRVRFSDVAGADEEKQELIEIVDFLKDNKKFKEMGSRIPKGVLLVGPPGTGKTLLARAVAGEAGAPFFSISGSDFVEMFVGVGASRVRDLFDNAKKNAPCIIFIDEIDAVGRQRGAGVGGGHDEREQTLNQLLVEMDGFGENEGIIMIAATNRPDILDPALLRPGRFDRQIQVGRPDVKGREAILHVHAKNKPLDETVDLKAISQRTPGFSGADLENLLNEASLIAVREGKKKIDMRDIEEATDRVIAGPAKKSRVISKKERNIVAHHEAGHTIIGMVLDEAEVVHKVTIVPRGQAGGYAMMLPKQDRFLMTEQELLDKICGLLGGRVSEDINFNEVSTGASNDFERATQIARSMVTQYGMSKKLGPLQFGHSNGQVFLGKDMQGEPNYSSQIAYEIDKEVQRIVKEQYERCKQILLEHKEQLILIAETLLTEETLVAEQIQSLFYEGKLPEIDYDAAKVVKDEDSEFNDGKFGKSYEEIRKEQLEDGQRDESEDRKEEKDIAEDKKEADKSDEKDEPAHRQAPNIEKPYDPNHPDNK
Procedure: Surface plasmon resonance (SPR). To detect the affinity between the small molecular compounds and FtsH, SPR analyses were performed on a multiple flow cell Biacore T200 instrument (Cytiva, the United States). Briefly, FtsH (35.5 µg/mL in 10 mM sodium acetate buffer, pH= 4.0) was covalently immobilized on a dextran matrix CM5 sensor chip surface in three different flow cells. The excessive active groups on the dextran matrix were blocked using 1 M ethanolamine at the velocity of 10 μL/min for 15 min. The uncoated reference flow cell on the fourth flow cell was prepared on the dextran matrix treated as described above but without any ligand. 1×PBS (pH 7.4) containing 2 mM KH2PO4, 137 mM NaCl, 10 mM Na2HPO4, 2.7 mM KCl and 5%DMSO was used as the running buffer. In the running buffer, a 2-fold serially diluted of compounds was passed over the ligand at a flow rate of 30 µL/min. The sensorgrams were recorded at 25 °C. The response units at the steady state were fitted to the Langmuir equation to yield the Kd values^35.
Protein synthesis and purification. The primers in this study were designed according to the sequence of S. aureus ATCC 43300 genome published on NCBI. […] Finally, the target protein was detected by SDS-PAGE. […]

[4] = Pharmacokinetics determination; type: in vivo; parameters: bioavailability / Vd / clearance / AUC(0-t) / AUC(0-inf) / MRT last / MRT inf: dose or concentration left out as unconfirmed; conditions: female, ICR, mouse, plasma, mice; for MRT last: read-out: MRT(0-t); for MRT inf: read-out: MRT(0-∞)
Procedure: Pharmacokinetics determination. […] Blood samples were extracted from the jugular vein at intervals of 0.083, 0.25, 0.5, 1, 2, 4, 8, and 24h post-treatment, respectively. The plasma was separated following centrifugation at 6800 × g for 6 min. Concentrations of these compounds in the plasma were quantified by using the LC-MS/MS-04 instrument (TQ4000, JEOL, Japan), and pharmacokinetic parameters were calculated by using Phoenix WinNonlin 7.0 software (Certara, Princeton, NJ, USA)^37.

[5] = system: S. aureus ATCC 43300; assay: Periprosthetic joint infection (PJI) model; type: in vivo, ICR mice; conditions: i.p.

In the case of `Cc1nc2c(-c3ccc(Cl)cc3)cnn2c(O)c1Cc1ccccc1` [STK848198], the cytotoxicity [1] is reported as “no toxicity”, the “concentration inhibiting biofilm biomass formation” value ([2]; biofilm inhibition) is reported as 0.25 µg/mL and the “concentration eradicating preformed biofilm biomass” value ([2]; preformed biofilm) is reported as 2 µg/mL. The Kd [3] was 31 µM, the AUC(0-inf) ([4]; ip) was 38300 ± 7020 ng·h/mL and the AUC(0-t) ([4]; ip) was 38300 ± 7020 ng·h/mL. It also gave a Cmax ([4]; ip) of 39000 ± 5470 ng/mL, a bioavailability ([4]; ip) of 87% and an MRT last ([4]; ip, i.p.) of 1.02 ± 0.16 h. It also gave an MRT inf ([4]; ip, i.p.) of 1.17 ± 0.21 h, a half-life ([4]; ip, i.p., read-out: T1/2 (converted)) of 3.15 ± 2.38 h and a Tmax ([4]; ip, i.p., read-out: Tmax) of 0.33 ± 0.14 h. It also gave an AUC(0-inf) ([4]; iv) of 22400 ± 1990 ng·h/mL, an AUC(0-t) ([4]; iv) of 22000 ± 1960 ng·h/mL and a C0 ([4]; iv) of 51900 ± 1010 ng/mL. It also gave a Cmax ([4]; iv) of 40100 ± 2180 ng/mL, a clearance ([4]; iv) of 7.48 ± 0.69 mL/min/kg and an MRT last ([4]; iv, i.v.) of 0.67 ± 0.1 h. It also gave an MRT inf ([4]; iv, i.v.) of 0.86 ± 0.05 h, a half-life ([4]; iv, i.v., read-out: T1/2 (converted)) of 2.54 ± 0.7 h and a Tmax ([4]; iv, i.v., read-out: Tmax) of 0.08 h. For the same compound, the Vd ([4]; iv, i.v., read-out: Vss) was 0.38 ± 0.02 L/kg, the Vd ([4]; iv, i.v., read-out: Vz) was 1.66 ± 0.57 L/kg and the Tmax ([4]; other: range over s.c., i.v., i.p. and p.o., 30 mg/kg, all the administration routes, read-out: T max (range)) was 0.08 to 0.33 h. The half-life ([4]; other: range over s.c., i.v., i.p. and p.o., 30 mg/kg, all the administration routes, read-out: half-life (range)) was 2.54 to 7.65 h, the AUC(0-inf) ([4]; po) was 17800 ± 10500 ng·h/mL and the AUC(0-t) ([4]; po) was 17800 ± 10500 ng·h/mL. For the same compound, the Cmax ([4]; po) was 18700 ± 3430 ng/mL, the bioavailability ([4]; po) was 40.4% and the MRT last ([4]; po, p.o.) was 1.62 ± 0.75 h. The MRT inf ([4]; po, p.o.) was 2.21 ± 0.79 h, the half-life ([4]; po, p.o., read-out: T1/2 (converted)) was 3.43 ± 1.53 h and the Tmax ([4]; po, p.o., read-out: Tmax) was 0.25 h. The AUC(0-inf) ([4]; sc) was 18000 ± 3640 ng·h/mL, the AUC(0-t) ([4]; sc) was 18000 ± 3640 ng·h/mL and the Cmax ([4]; sc) was 11600 ± 6890 ng/mL. It also gave a bioavailability ([4]; sc) of 40.9%, an MRT last ([4]; sc, s.c.) of 3.5 ± 1.22 h and an MRT inf ([4]; sc, s.c.) of 5.19 ± 2.09 h. For the same compound, the half-life ([4]; sc, s.c., read-out: T1/2 (converted)) was 7.65 ± 1.16 h, the Tmax ([4]; sc, s.c., read-out: Tmax) was 0.33 ± 0.14 h and the “bacterial viable cell loads in infected joint” value ([5]; day 5, AMP 25 mg/kg combined with STK848198 30 mg/kg) was “effectively reduce the bacterial viable cell loads”. For the same compound, the “bacterial loads in the joint and its surrounding tissue” value ([5]; day 7, alone or in combination) was “reduce the bacterial loads”.
